By IC50 is commonly meant the point on the concentration scale where inhibition reaches its midpoint. Higher therefore signals weaker potency in that assay.

This note sets out measurements from patent publication US10227346B2, “Methyl- and trifluoromethyl-substituted pyrrolopyridine modulators of RORC2 and methods of use therof” (Pfizer Inc., priority 2014, dated 2019).

The test system of the experiment is IL-17 production from human Th17 cells. The experiment can be described thus: IL-17 production from human Th17 cells.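 Further: purified human CD4+ T cells activated with anti-CD3 plus anti-CD28 and a Th17-inducing cytokine cocktail, with compound at serial concentrations versus no compound.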 Type of experiment: cell-based. To be noted: IL-17A in supernatant by ELISA after 6 days, human CD4+ T cells under Th17 differentiation. (In an ELISA, binding on a coated surface is turned into a signal by an enzyme label.)

In the case of `CC(C)C(=O)N1CC[C@@H](c2cn(C)c3ncc(NC(=O)c4cccc(C#N)c4F)c(C(F)(F)F)c23)[C@@H](C)C1` [Example 82, 3-cyano-2-fluoro-N-(3-((3R,4R)-1-isobutyryl-3-methylpiperidin-4-yl)-1-methyl-4-(trifluoromethyl)-1H-pyrrolo[2,3-b]pyridin-5-yl)benzamide], inhibition was half-maximal at 5.7 nM (IC50).
With `CC(C)C(=O)N1CCC(c2cn(C)c3ncc(NC(=O)c4ccc(Cl)c(C#N)c4)c(C(F)(F)F)c23)CC1` [Example 11, 4-chloro-3-cyano-N-(3-(1-isobutyrylpiperidin-4-yl)-1-methyl-4-(trifluoromethyl)-1H-pyrrolo[2,3-b]pyridin-5-yl)benzamide] the figure was 7.8 nM; with `Cn1cc(C2CCN(C(=O)[C@@H]3CCCS3)CC2)c2c(C(F)(F)F)c(NC(=O)c3cccc(C#N)c3)cnc21` (single isomer, unassigned) [Example 29], 8.5 nM.
With `COc1cc(Cl)cc(C(=O)Nc2cnc3c(c(C4CCN(C(=O)[C@H](C)C(C)(C)C)CC4)cn3C)c2C)c1` [Example 42, (R)-3-chloro-N-(1,4-dimethyl-3-(1-(2,3,3-trimethylbutanoyl)piperidin-4-yl)-1H-pyrrolo[2,3-b]pyridin-5-yl)-5-methoxybenzamide] the figure was 31.3 nM; with `Cn1cc(C2CCN(C(=O)CC3CC3)CC2)c2c(C(F)(F)F)c(NC(=O)c3cccc(C#N)c3)cnc21` [Example 24, 3-cyano-N-(3-(1-(2-cyclopropylacetyl)piperidin-4-yl)-1-methyl-4-(trifluoromethyl)-1H-pyrrolo[2,3-b]pyridin-5-yl)benzamide], 17.4 nM; with `Cc1c(NC(=O)c2cccc(C#N)c2)cnc2c1c([C@@H]1CCN(C(=O)CC3CCCCC3)C(C)(C)C1)cn2C` [Example 75, (R)-3-cyano-N-(3-(1-(2-cyclohexylacetyl)-2,2-dimethylpiperidin-4-yl)-1,4-dimethyl-1H-pyrrolo[2,3-b]pyridin-5-yl)benzamide], 6.8 nM.
The value for `CC(C(=O)N1CCC(c2cn(C)c3ncc(NC(=O)c4cccc(C#N)c4)c(C(F)(F)F)c23)CC1)C1CC1` (racemic) [Example 25, Rac-3-cyano-N-(3-(1-(2-cyclopropylpropanoyl)piperidin-4-yl)-1-methyl-4-(trifluoromethyl)-1H-pyrrolo[2,3-b]pyridin-5-yl)benzamide] was 14.1 nM.
Take `Cn1cc(C2CCN(C(=O)[C@H]3CCCS3)CC2)c2c(C(F)(F)F)c(NC(=O)c3cccc(C#N)c3)cnc21` (single isomer, unassigned) [Example 28]: half-maximal inhibition (IC50) required 118 nM.
The value for `Cc1c(NC(=O)c2cccc(C#N)c2)cnc2c1c(C1CCN(C(=O)[C@H](C)C3CCCC3)CC1)cn2C` [Example 51, (R)-3-cyano-N-(3-(1-(2-cyclopentylpropanoyl)piperidin-4-yl)-1,4-dimethyl-1H-pyrrolo[2,3-b]pyridin-5-yl)benzamide] was 6.4 nM.
`Cn1cc(C2CCN(C(=O)C3CCCC3)CC2)c2c(C(F)(F)F)c(NC(=O)c3cc(O)cc(C#N)c3)cnc21` [Example 55, 3-cyano-N-(3-(1-(cyclopentanecarbonyl)piperidin-4-yl)-1-methyl-4-(trifluoromethyl)-1H-pyrrolo[2,3-b]pyridin-5-yl)-5-hydroxybenzamide] showed an IC50 of 6 nM.
The value for `Cc1c(NC(=O)c2cccc(C#N)c2)cnc2c1c([C@@H]1CCN(C(=O)C[C@@H](O)C(F)(F)F)C(C)(C)C1)cn2C` [Example 73, 3-cyano-N-(3-((R)-2,2-dimethyl-1-((R)-4,4,4-trifluoro-3-hydroxybutanoyl)piperidin-4-yl)-1,4-dimethyl-1H-pyrrolo[2,3-b]pyridin-5-yl)benzamide] was 25.3 nM; that for `Cc1c(NC(=O)c2cc(Cl)ccc2F)cnc2c1c(C1CCN(C(=O)[C@H](C)C(C)(C)C)CC1)cn2C` [Example 41, (R)-5-chloro-N-(1,4-dimethyl-3-(1-(2,3,3-trimethylbutanoyl)piperidin-4-yl)-1H-pyrrolo[2,3-b]pyridin-5-yl)-2-fluorobenzamide] was 18.9 nM.
The value for `Cc1c(NC(=O)c2cccc(C#N)c2)cnc2c1c(C1CCN(C(=O)c3cccc4c3CCC4)CC1)cn2C` [Example 34, 3-cyano-N-(3-(1-(2,3-dihydro-1H-indene-4-carbonyl)piperidin-4-yl)-1,4-dimethyl-1H-pyrrolo[2,3-b]pyridin-5-yl)benzamide] was 9.5 nM; that for `COc1ccc(C(=O)Nc2cnc3c(c(C4[C@@H]5CC[C@H]4CN(C(=O)C4CCCC4)C5)cn3C)c2C)cc1C#N` (stereo partly drawn) [Example 99, 3-cyano-N-(3-((1R,5S,8r)-3-(cyclopentanecarbonyl)-3-azabicyclo[3.2.1]octan-8-yl)-1,4-dimethyl-1H-pyrrolo[2,3-b]pyridin-5-yl)-4-methoxybenzamide] was 14.7 nM.
Consider `CC(C)C(=O)N1CCC(c2cn(C)c3ncc(NC(=O)c4ccc(F)c(Cl)c4)c(C(F)(F)F)c23)CC1` [Example 12, 3-chloro-4-fluoro-N-(3-(1-isobutyrylpiperidin-4-yl)-1-methyl-4-(trifluoromethyl)-1H-pyrrolo[2,3-b]pyridin-5-yl)benzamide], for which the half-inhibitory concentration (IC50) amounted to 57.9 nM. Against the preceding molecule, the IC50 is about 3.9-fold higher.
Turning to `Cc1ccc(C(=O)Nc2cnc3c(c([C@@H]4CCN(C(=O)C5CCCC5)C(C)(C)C4)cn3C)c2C)cc1C#N` [Example 59, (R)-3-cyano-N-(3-(1-(cyclopentanecarbonyl)-2,2-dimethylpiperidin-4-yl)-1,4-dimethyl-1H-pyrrolo[2,3-b]pyridin-5-yl)-4-methylbenzamide], 9.9 nM corresponded to half-maximal inhibition (IC50).
Molecule `Cc1c(NC(=O)c2cccc(C#N)c2)cnc2c1c([C@@H]1CCN(C(=O)C(C)C3CC3)C[C@@H]1C)cn2C` (stereo partly drawn) [Example 86, 3-cyano-N-(3-((3R,4R)-1-(2-cyclopropylpropanoyl)-3-methylpiperidin-4-yl)-1,4-dimethyl-1H-pyrrolo[2,3-b]pyridin-5-yl)benzamide] had a half-maximal inhibitory concentration (IC50) of 34.9 nM.
As for `Cn1cc(C2CCN(C(=O)[C@H]3C[C@H]4CCCC[C@H]4C3)CC2)c2c(C(F)(F)F)c(NC(=O)c3cccc(C#N)c3)cnc21` [Example 16, 3-cyano-N-(1-methyl-3-(1-((2r,3aR,7aS)-octahydro-1H-indene-2-carbonyl)piperidin-4-yl)-4-(trifluoromethyl)-1H-pyrrolo[2,3-b]pyridin-5-yl)benzamide], half-maximal inhibition (IC50) required 10.7 nM.
With `Cn1cc(C2CCN(C(=O)CC3CCCCC3)CC2)c2c(C(F)(F)F)c(NC(=O)c3cccc(C#N)c3)cnc21` [Example 20, 3-cyano-N-(3-(1-(2-cyclohexylacetyl)piperidin-4-yl)-1-methyl-4-(trifluoromethyl)-1H-pyrrolo[2,3-b]pyridin-5-yl)benzamide] the figure was 18.5 nM.
